In patent US20220183294A1, “PESTICIDALLY ACTIVE AZOLE AMIDE COMPOUNDS” (SYNGENTA CROP PROTECTION AG, priority 2019, published 2022):

Tests used:
Format in all cases: in vivo
[1] = test system: Diabrotica balteata (Corn root worm); assay: Example B1: Diabrotica balteata (Corn root worm), sprayed maize sprouts; conditions: 96 h, application rate 200 ppm, L2 larvae, 4 days after infestation, read-out: control in at least one of the two categories (mortality or growth inhibition)
Protocol: Example B1: Diabrotica balteata (Corn root worm)
Maize sprouts placed onto an agar layer in 24-well microtiter plates were treated with aqueous test solutions prepared from 10′000 ppm DMSO stock solutions by spraying. After drying, the plates were infested with L2 larvae (6 to 10 per well). The samples were assessed for mortality and growth inhibition in comparison to untreated samples 4 days after infestation.
(§1) The following compounds gave an effect of at least 80% control in at least one of the two categories (mortality or growth inhibition) at an application rate of 200 ppm: […]

[2] = test system: Spodoptera littoralis (Egyptian cotton leaf worm); assay: Example B9: Spodoptera littoralis (Egyptian cotton leaf worm), sprayed cotton leaf discs; conditions: foliar, 72 h, application rate 200 ppm, L1 larvae, 3 days after infestation, read-out: control in at least one of the three categories (mortality, anti-feedant effect, or growth inhibition)
Protocol: Example B9: Spodoptera littoralis (Egyptian cotton leaf worm)
Cotton leaf discs were placed onto agar in 24-well microtiter plates and sprayed with aqueous test solutions prepared from 10′000 ppm DMSO stock solutions. After drying the leaf discs were infested with five L1 larvae. The samples were assessed for mortality, anti-feeding effect, and growth inhibition in comparison to untreated samples 3 days after infestation. Control of Spodoptera littoralis by a test sample is given when at least one of the categories mortality, anti-feedant effect, and growth inhibition is higher than the untreated sample.

[3] = test system: Chilo suppressalis (Striped rice stemborer); assay: Example B4: Chilo suppressalis (Striped rice stemborer), artificial diet; conditions: 144 h, application rate 200 ppm, L2 larvae, 6 days after infestation, read-out: control in at least one of the three categories (mortality, anti-feedant effect, or growth inhibition)
Protocol: Example B4: Chilo suppressalis (Striped rice stemborer) 24-well microtiter plates with artificial diet were treated with aqueous test solutions prepared from 10′000 ppm DMSO stock solutions by pipetting. After drying, the plates were infested with L2 larvae (6-8 per well). The samples were assessed for mortality, anti-feeding effect, and growth inhibition in comparison to untreated samples 6 days after infestation. Control of Chilo suppressalis by a test sample is given when at least one of the categories mortality, anti-feedant effect, and growth inhibition is higher than the untreated sample.

[4] = test system: Spodoptera littoralis (Egyptian cotton leaf worm); assay: Example B10: Spodoptera littoralis (Egyptian cotton leaf worm), uptake by lettuce roots from agar; conditions: 144 h, test rate 12.5 ppm, eggs, 6 days after infestation, read-out: control in at least one of the three categories (mortality, anti-feeding, or growth inhibition)
Description: Example B10: Spodoptera littoralis (Egyptian cotton leaf worm)
Test compounds were applied by pipette from 10′000 ppm DMSO stock solutions into 24-well plates and mixed with agar. Lettuce seeds were placed onto the agar and the multi well plate was closed by another plate which contained also agar. After 7 days the compound was absorbed by the roots and the lettuce grew into the lid plate. The lettuce leaves were then cut off into the lid plate. Spodoptera eggs were pipetted through a plastic stencil onto a humid gel blotting paper and the lid plate was closed with it. The samples were assessed for mortality, anti-feedant effect and growth inhibition in comparison to untreated samples 6 days after infestation.
The following compounds gave an effect of at least 80% control in at least one of the three categories (mortality, anti-feeding, or growth inhibition) at a test rate of 12.5 ppm: […]

[5] = test system: Plutella xylostella (Diamond back moth); assay: Example B5: Plutella xylostella (Diamond back moth), artificial diet, 24-well; conditions: 192 h, application rate 200 ppm, eggs, 8 days after infestation, read-out: control in at least one of the two categories (mortality or growth inhibition)
Protocol: Example B5: Plutella xylostella (Diamond back moth)
24-well microtiter plates with artificial diet were treated with aqueous test solutions prepared from 10′000 ppm DMSO stock solutions by pipetting. After drying, Plutella eggs were pipetted through a plastic stencil onto a gel blotting paper and the plate was closed with it. The samples were assessed for mortality and growth inhibition in comparison to untreated samples 8 days after infestation.
as §1

[6] = test system: Plutella xylostella (Diamondback Moth); assay: Example B13: Plutella xylostella (Diamondback Moth), artificial diet, 96-well; conditions: 216 h, application rate 500 ppm, eggs/L1 larvae, 9 days after infestation
Protocol: Example B13: Plutella xylostella (Diamondback Moth)
96-well microtiter plates containing artificial diet were treated with aqueous test solutions, prepared from 10′000 ppm DMSO stock solutions, by a liquid handling robot. After drying, eggs (-30 per well) were infested onto a netted lid which was suspended above the diet. The eggs hatch and L1 larvae move down to the diet. The samples were assessed for mortality 9 days after infestation.
The following compounds gave an effect of at least 80% mortality at an application rate of 500 ppm: […]

[7] = test system: Frankliniella occidentalis (Western flower thrips); assay: Example B3: Frankliniella occidentalis (Western flower thrips): Feeding/contact activity; conditions: 168 h, application rate 200 ppm, population of mixed ages, 7 days after infestation
Protocol: Example B3: Frankliniella occidentalis (Western flower thrips):Feeding/contact activity
Sunflower leaf discs were placed on agar in 24-well microtiter plates and sprayed with aqueous test solutions prepared from […] stock solutions. After drying the leaf discs were infested with a Frankliniella population of mixed ages. The samples were assessed for mortality 7 days after infestation.

[8] = test system: Myzus persicae (Green peach aphid); assay: Example B12: Myzus persicae (Green Peach Aphid), 96-well sucrose solution; conditions: 120 h, application rate 50 ppm, 5 days after infestation
Description: Example B12: Myzus persicae (Green Peach Aphid)
Test compounds prepared from 10′000 ppm DMSO stock solutions were applied by a liquid handling robot into 96-well microtiter plates and mixed with a sucrose solution. Parafilm was stretched over the 96-well microtiter plate and a plastic stencil with 96 holes was placed onto the plate. Aphids were sieved into the wells directly onto the Parafilm. The infested plates were closed with a gel blotting card and a second plastic stencil and then turned upside down. The samples were assessed for mortality 5 days after infestation.

[9] = test system: Myzus persicae (Green peach aphid); assay: Example B8: Myzus persicae (Green peach aphid): Intrinsic activity; conditions: 120 h, test rate 12 ppm, 5 days after infestation
Description: Example B8: Myzus persicae (Green peach aphid): Intrinsic activity
Test compounds prepared from 10′000 ppm DMSO stock solutions were applied by pipette into 24-well microtiter plates and mixed with sucrose solution. The plates were closed with a stretched Parafilm. A plastic stencil with 24 holes was placed onto the plate and infested pea seedlings were placed directly on the Parafilm. The infested plate was closed with a gel blotting paper and another plastic stencil and then turned upside down. The samples were assessed for mortality 5 days after infestation.

C[C@H](NC(=O)c1cc(C(F)(F)F)nc(C2(C#N)CC2)c1)c1ncnn1-c1ccc(C#N)cn1 [P1, 2-(1-cyanocyclopropyl)-N-[(1S)-1-[2-(5-cyano-2-pyridyl)-1,2,4-triazol-3-yl]ethyl]-6-(trifluoromethyl)pyridine-4-carboxamide]
≥ 80%: percent control (mortality or growth inhibition) at 200 ppm [1] | percent control (mortality, anti-feedant effect or growth inhibition) at 200 ppm [2] | percent control (mortality, anti-feedant effect or growth inhibition) at 200 ppm [3] | percent control (mortality, anti-feeding or growth inhibition) at 12.5 ppm [4] | percent control (mortality or growth inhibition) at 200 ppm [5] | mortality at 500 ppm [6]

C[C@H](NC(=O)c1cc(C(F)(F)F)cc(S(=O)(=O)C(F)(F)F)c1)c1ncnn1-c1ccc(C#N)cn1 [P2, N-[(1S)-1-[2-(5-cyano-2-pyridyl)-1,2,4-triazol-3-yl]ethyl]-3-(trifluoromethyl)-5-(trifluoromethylsulfonyl) benzamide]
≥ 80%: percent control (mortality or growth inhibition) at 200 ppm [1] | percent control (mortality, anti-feedant effect or growth inhibition) at 200 ppm [2] | percent control (mortality, anti-feedant effect or growth inhibition) at 200 ppm [3] | percent control (mortality, anti-feeding or growth inhibition) at 12.5 ppm [4] | percent control (mortality or growth inhibition) at 200 ppm [5] | mortality at 500 ppm [6]

CC(NC(=O)c1cc(C(F)(F)F)cc(S(=O)(=O)C(F)(F)F)c1)c1ncnn1-c1ccc(C#N)cn1 (centres unmarked) [P5, N-[1-[2-(5-cyano-2-pyridyl)-1,2,4-triazol-3-yl]ethyl]-3-(trifluoromethyl)-5-(trifluoromethylsulfonyl)benzamide]
≥ 80%: percent control (mortality or growth inhibition) at 200 ppm [1] | percent control (mortality, anti-feedant effect or growth inhibition) at 200 ppm [2] | percent control (mortality, anti-feedant effect or growth inhibition) at 200 ppm [3] | percent control (mortality, anti-feeding or growth inhibition) at 12.5 ppm [4] | percent control (mortality or growth inhibition) at 200 ppm [5] | mortality at 200 ppm [7] | mortality at 500 ppm [6]

C[C@H](NC(=O)c1cc(C(F)(F)F)cc(C(F)(F)C2CC2)c1)c1ncnn1-c1ncc(OCC(F)F)cn1 [P7, 3-[cyclopropyl(difluoro)methyl]-N-[(1S)-1-[2-[5-(2,2-difluoroethoxy)pyrimidin-2-yl]-1,2,4-triazol-3-yl]ethyl]-5-(trifluoromethyl) benzamide]
≥ 80%: mortality at 50 ppm [8] | percent control (mortality, anti-feedant effect or growth inhibition) at 200 ppm [2] | percent control (mortality, anti-feedant effect or growth inhibition) at 200 ppm [3] | percent control (mortality or growth inhibition) at 200 ppm [5] | mortality at 500 ppm [6]

CC(NC(=O)c1cc(C2CC2)nc(C(F)(F)F)c1)c1ncnn1-c1ncc(OCC(F)F)cn1 (centres unmarked) [P22, 2-cyclopropyl-N-[1-[2-[5-(2,2-difluoroethoxy)pyrimidin-2-yl]-1,2,4-triazol-3-yl]ethyl]-6-(trifluoromethyl)pyridine-4-carboxamide]
≥ 80%: percent control (mortality or growth inhibition) at 200 ppm [1] | percent control (mortality, anti-feedant effect or growth inhibition) at 200 ppm [2] | percent control (mortality, anti-feedant effect or growth inhibition) at 200 ppm [3] | percent control (mortality or growth inhibition) at 200 ppm [5] | mortality at 12 ppm [9]
